Data on eleven compounds can be found in ChEMBL document CHEMBL1132097, “Fluorobenzamidrazone thrombin inhibitors: influence of fluorine on enhancing oral absorption” (Bioorg Med Chem Lett, 1999).

Data set [1] has as its target T1, Serine protease 1 (Bos taurus, UniProt P00760).
T1 sequence (P00760 whole entry): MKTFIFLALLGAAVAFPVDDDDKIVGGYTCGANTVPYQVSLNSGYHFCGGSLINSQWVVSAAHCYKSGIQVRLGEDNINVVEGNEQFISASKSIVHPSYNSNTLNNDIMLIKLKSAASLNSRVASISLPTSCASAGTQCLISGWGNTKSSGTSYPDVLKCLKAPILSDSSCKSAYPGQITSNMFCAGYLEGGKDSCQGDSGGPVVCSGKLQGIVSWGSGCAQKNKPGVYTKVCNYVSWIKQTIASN
In words: Inhibitory constant against bovine trypsin was determined in vitro.

Data set [2] addresses T2, Prothrombin (Homo sapiens, UniProt P00734). As to the kind of experiment: Inhibitory constant against human thrombin was determined in vitro.
The nature of data set [3]: Absorption behavior was judged by the peak blood concentration determined after oral dose of 30 mg/kg in rats. It is filed as ADME, organism-based. More on the design: dose 30 mg/kg, route oral. The settings on record: rat.
Data set [4] in a line: Absorption behavior was judged by the area under the curve, determined after oral dose of 30 mg/kg in rats. More on the design: dose 30 mg/kg, route oral. The settings on record: rat, in vivo. The data set is classed as ADME, organism-based.
For data set [5], the target named is T2, Prothrombin. As to the kind of experiment: Inhibitory constant against human thrombin was determined in vitro.
The target in data set [6] is T1, Serine protease 1. In words: Inhibitory constant against bovine trypsin was determined in vitro.

Usually Ki stands for the equilibrium dissociation constant of an inhibitor or competing ligand from its target. Higher therefore signals weaker binding. As usually defined, the Cmax is the peak of the concentration-time curve. As a reminder, the AUC is concentration integrated over time. A higher AUC goes with high exposure. In the case of `CCCc1ccc(S(=O)(=O)N[C@@H](Cc2ccc(C(N)=NN)cc2)C(=O)N(C)C2CCCC2)cc1`, the Ki at Serine protease 1 [1] amounted to 3500 nM; at Prothrombin [2] it was 0.2 nM. The same compound displayed a Cmax in data set [3] of 1170 nM. In data set [4], this compound showed an AUC of 2.23 µM·h.
With `CCCc1ccc(S(=O)(=O)N[C@@H](Cc2ccc(C(=N)NN)c(F)c2)C(=O)N(C)C2CCCC2)cc1`, the Ki on Prothrombin [5] amounted to 1.8 nM; at Serine protease 1 [6], 22000 nM. The compound also registered a Cmax in data set [3] of 2780 nM. The AUC in data set [4] was 4.17 µM·h.
With `COc1ccc2cc(S(=O)(=O)N[C@@H](Cc3ccc(C(N)=NN)cc3)C(=O)N(C)C3CCCC3)ccc2c1`, the Ki is 0.06 nM on Prothrombin [5] and 9200 nM on Serine protease 1 [6]. Also, in data set [3], the concentration peaked (Cmax) at 1130 nM. In data set [4], this compound gave an AUC of 2.62 µM·h.
As for `CCCc1ccc(S(=O)(=O)N[C@@H](Cc2ccc(C(N)=NN)cc2F)C(=O)N(C)C2CCCC2)cc1`, the inhibition constant (Ki) at Prothrombin [5] was 0.7 nM; at Serine protease 1 [6], 4000 nM. In data set [3], this compound had a Cmax of 1350 nM. In data set [4], this compound showed an AUC of 2.68 µM·h.
As to `CN(C(=O)[C@H](Cc1ccc(C(N)=NN)c(F)c1)NS(=O)(=O)c1ccc2c(c1)CCCC2)C1CCCC1`, the Ki at Prothrombin [5] turned out to be 0.9 nM; on Serine protease 1 [6] it was 25000 nM. For the same compound, the highest level in data set [3] (Cmax) was 1340 nM. For the same compound, the AUC in data set [4] is 1.63 µM·h.
The matching figures for `COc1ccc2cc(S(=O)(=O)N[C@@H](Cc3ccc(C(N)=NN)cc3F)C(=O)N(C)C3CCCC3)ccc2c1`: 0.2 nM, 2000 nM, 2410 nM and 3.28 µM·h.
In the case of `CN(C(=O)[C@H](Cc1ccc(C(=N)NN)cc1)NS(=O)(=O)c1ccc2ccccc2c1)C1CCCC1`, the Ki at Prothrombin [5] came out at 0.4 nM; on Serine protease 1 [6], 33000 nM. In data set [3], this compound returned a Cmax of 1610 nM. Also, in data set [4], the AUC is 2.33 µM·h.
For `CN(C(=O)[C@H](Cc1ccc(C(N)=NN)cc1)NS(=O)(=O)c1ccc2c(c1)CCCC2)C1CCCC1` the same measures were 0.1 nM, 4600 nM, 360 nM and 0.817 µM·h.
For `CN(C(=O)[C@H](Cc1ccc(C(=N)NN)cc1F)NS(=O)(=O)c1ccc2ccccc2c1)C1CCCC1` the same measures were 2 nM, 11000 nM, 1630 nM and 1.83 µM·h.
For `CN(C(=O)[C@H](Cc1ccc(C(N)=NN)c(F)c1)NS(=O)(=O)c1ccc2ccccc2c1)C1CCCC1` the same measures were 5.5 nM, 25000 nM, 4130 nM and 6.67 µM·h.
Regarding `CN(C(=O)[C@H](Cc1ccc(C(=N)NN)cc1F)NS(=O)(=O)c1ccc2c(c1)CCCC2)C1CCCC1`, the Ki came to 0.5 nM on Prothrombin [5] and 3000 nM at Serine protease 1 [6]. Also, in data set [3], the Cmax is 1030 nM. Also, the AUC in data set [4] is 1.37 µM·h.
